Measurements reported in patent publication US20050276765A1, “Preventing skin damage” (priority 2004, published 2005).

Key:
back skin of mice = assay: Primary irritation score on clipped back skin of mice; assay type: in vivo, mice (FVB strain); settings: for irritation category (0-4): 5 μl topical daily
Procedure: A third primary irritation experiment was performed. Back skin of mice (FVB strain, female, 7 weeks of age, n=3-4/group) was clipped of hair with an electric clipper and 5 μl of each solution was topically applied. The following day, irritation was evaluated according to five categories (0: no irritation, 1; slight irritation, 2:clear irritation, 3:strong irritation, 4:severe irritation) and 5 μl of each solution was topically applied. This procedure was continued for a total of five consecutive days.

mice ears = assay: Mouse ear thickness after a single UVB irradiation and topical application for five days
Procedure: Prior to the experiment, the thickness of mice ears (FVB strain, female, 7 weeks of age, n=3-4/group) was measured with a thickness gauge (Mitsutoyo Corp.). […] The following day, ear thickness of both ears was measured. This procedure was continued for five consecutive days.
In a second experiment, solution was applied to each ear after exposure to UVB irradiation. The following day, the thickness of both ears was measured. UVB irradiation was only applied once and solutions were administered a total of five times (once a day/consecutive five days).

hairless Skh-1 mice = assay: UVB-induced chronic skin damage: skin wrinkling score after 10 weeks; assay type: in vivo, mice (hairless Skh-1)
Procedure: Mice of groups 1 and 3 were exposed to UVB irradiation, using fluorescent lamps (Southern New England Ultraviolet). The height of the lamps was adjusted to deliver 0.35 mW/cm^2 at the dorsal skin surface of the mice. Samples were applied (100 μl) on the back of UVB irradiated and non-UVB irradiated mice. This procedure was repeated three times weekly for 10 weeks. […] The total cumulative dose of UVB was 6.54 J/cm^2.
After 10 weeks, skin wrinkling was evaluated by two independent persons according to five categories (0: no wrinkle; 1: slight wrinkle, 2: clear wrinkle, 3: strong wrinkle; 4: severe wrinkle).

Cn1c(=O)c2c(ncn2C)n(C)c1=O [caffeine]
irritation category (0-4) (back skin of mice; 0.5% caffeine in DMSO, day 0): 0
irritation category (0-4) (back skin of mice; 0.5% caffeine in DMSO, day 1): 0
irritation category (0-4) (back skin of mice; 0.5% caffeine in DMSO, day 2): 0
irritation category (0-4) (back skin of mice; 0.5% caffeine in DMSO, day 3): 0
irritation category (0-4) (back skin of mice; 0.5% caffeine in DMSO, day 4): 0
irritation category (0-4) (back skin of mice; 0.5% caffeine in DMSO, day 5): 0
irritation category (0-4) (back skin of mice; 0.5% caffeine in acetone, day 0): 0
irritation category (0-4) (back skin of mice; 0.5% caffeine in acetone, day 1): 0
irritation category (0-4) (back skin of mice; 0.5% caffeine in acetone, day 2): 0
irritation category (0-4) (back skin of mice; 0.5% caffeine in acetone, day 3): 0
irritation category (0-4) (back skin of mice; 0.5% caffeine in acetone, day 4): 0
irritation category (0-4) (back skin of mice; 0.5% caffeine in acetone, day 5): 0
irritation category (0-4) (back skin of mice; 1.2% caffeine in acetone, day 0): 0
irritation category (0-4) (back skin of mice; 1.2% caffeine in acetone, day 1): 0
irritation category (0-4) (back skin of mice; 1.2% caffeine in acetone, day 2): 0
irritation category (0-4) (back skin of mice; 1.2% caffeine in acetone, day 3): 0
irritation category (0-4) (back skin of mice; 1.2% caffeine in acetone, day 4): 0
irritation category (0-4) (back skin of mice; 1.2% caffeine in acetone, day 5): 0
irritation category (0-4) (back skin of mice; 2% caffeine in DMSO, day 0): 0
irritation category (0-4) (back skin of mice; 2% caffeine in DMSO, day 1): 0
irritation category (0-4) (back skin of mice; 2% caffeine in DMSO, day 2): 0
irritation category (0-4) (back skin of mice; 2% caffeine in DMSO, day 3): 0
irritation category (0-4) (back skin of mice; 2% caffeine in DMSO, day 4): 0
irritation category (0-4) (back skin of mice; 2% caffeine in DMSO, day 5): 0
irritation in mouse skin (back skin of mice; back skin, five consecutive days): did not cause irritation
primary irritancy (back skin) (back skin of mice; concentration of 2% in DMSO and 1.2% in acetone): did not have primary irritancy
ear thickness compared to solvents (DMSO or acetone) (mice ears; 2% in DMSO or 1.2% in acetone, with or without UVB): did not increase ear thickness
primary irritancy (ear) (mice ears; concentration of 2% in DMSO or 1.2% in acetone): did not have primary irritancy
UVB-induced wrinkle formation (hairless Skh-1 mice; 1.2% in acetone, topical, 10 weeks): effective at reducing UVB-induced wrinkle formation
skin wrinkling score, average (hairless Skh-1 mice; group 2: No UVB + 1.2% caffeine in acetone, 100 μl on back three times weekly, after 10 weeks, scale 0 no wrinkle to 4 severe wrinkle): 0
